One series relates to T cells / MDSCs. Briefly: Promotion of T cell proliferation in a co-culture model of MDSCs and T cells. The series is classed as cell-based, mouse. Particulars: for activation at 1 µM: Mus musculus, T-cell, 12 h, read-out: T-cell proliferation rate (%), 1 μM, MDSCs treated 12 hours, co-culture of MDSCs and T cells, compared to the control group. As to the method:
Under sterile conditions, the tibia was removed, both ends of the bone were cut, and bone marrow was repeatedly flushed into a 15 mL centrifuge tube using a 1 mL syringe filled with culture medium. Centrifuge at 1600 rpm for 5 min to collect bone marrow cells. […] The spleen cell suspension was then transferred into a 15 mL centrifuge tube. Centrifuge at 1600 rpm for 5 min to collect T cells. Wash twice with 1×PBS. Resuspend the centrifuged T cells in 1 mL PBS and add 1 mL of 10 μM CFDA-SE solution. Incubate at room temperature for 8 min. […] After drug administration, collect MDSC cells into centrifuge tubes. Centrifuge at 1600 rpm for 5 min, remove supernatant, resuspend in 1 mL fresh medium, and plate. Add 1 mL stimulated activated T cells (1:1 ratio) for 48 h co-culture. After incubation, collect cells into centrifuge tubes, wash twice with PBS, and incubate with Fc antibody at room temperature in the dark for 10 min. Add CD3-labeled flow cytometry antibody and incubate at 4° C. in the dark for 30 min. After incubation, wash cells with PBS, resuspend in 300 μL PBS, and analyze by flow cytometry.

Series [1] can be described thus: Conversion (release) of prodrug salts to parent compound in mouse plasma. As to conditions: 37 °C; for metabolised at 1 h / metabolised at 2 h / metabolised at 4 h / metabolised at 8 h / metabolised at 12 h: mouse, plasma, read-out: Release rate (conversion to Compound 1). Format: in vitro ADME. The protocol: (§1) Pharmaceutically acceptable salts of guaiane-type sesquiterpene lactone derivatives were selected and evaluated for their conversion rates to Compound 1 and Compound 83 in plasma and HEPES buffer, with results shown in Tables 2-1, 2-2, 3-1, and 3-2.
Plasma Preparation: Collect mouse plasma into an EP tube pre-loaded with sodium heparin, centrifuge at 8000 rpm for 10 minutes at 4° C., and then collect the supernatant.
(§2) Sample Analysis: Dissolve 0.6 mg of the compound in 250 μL of deionized water separately. Add 250 μL of mouse serum or HEPES 7.4 solution to the sample, incubate at a constant temperature of 37° C., and collect samples at different time points. Pipette 20 μL of the sample to an EP tube, add 60 μL of methanol, vortex to mix thoroughly, and centrifuge at 12,000 rpm at 4° C. for 10 min. At 1 h, 2 h, 4 h, 8 h, and 12 h respectively, collect the supernatant for HPLC analysis. Inject 10 μL of sample and record the corresponding peak areas. Chromatographic conditions: Hanbang C18 column (4.6×250 mm, 5 μm); mobile phase: acetonitrile: […] ammonium formate solution=60:40; flow rate 1.0 mL/min; detection wavelength 210 nm; column temperature 30° C.

Series [2] can be described thus: Conversion (release) of prodrug salts to parent compound in HEPES buffer pH 7.4. Format: in vitro ADME. As to conditions: for degraded at 1 h / degraded at 2 h / degraded at 4 h / degraded at 8 h / degraded at 12 h: hepes buffer, pH 7.4, HEPES pH 7.4, 37 °C, read-out: Release rate (conversion to Compound 1); for Release rate (conversion to Compound 1): HEPES pH 7.4, 37 °C. As to the method:
as §1
Experimental Method: Preparation of HEPES 7.4 Solution: Dissolve 1.6 g NaCl, 0.074 g KCl, 0.027 g Na2HPO4, 0.2 g glucose, and 1 g 4-(2-Hydroxyethyl)piperazine-1-ethanesulfonic acid (HEPES) solution in 90 mL distilled water. Adjust the pH to 7.4 using 0.5 M NaOH, then dilute to a final volume 100 mL with distilled water.
as §2

For `C[C@@]12CC[C@@H]3[C@H](OC(=O)[C@H]3CN3CCNCC3)[C@@H]3[C@]1(CC[C@@]3(C)O)C2` [Compound 7], the activation at 1 µM in the series on T cells / MDSCs was 0 to 20%.

In the case of `C[C@@]12CC[C@@H]3[C@H](OC(=O)[C@H]3CN3CCCC3)[C@@H]3[C@]1(CC[C@@]3(C)O)C2` [Compound 22], the metabolised at 1 h in series [1] (1 h) is 7.4%. Further, the metabolised at 2 h in series [1] (2 h) stood at 16.8%. The metabolised at 4 h in series [1] (4 h) is 27.6%. In series [1] (8 h), the metabolised at 8 h stood at 46.3%. The metabolised at 12 h in series [1] (12 h) was found to be 57.7%. The degraded at 1 h in series [2] (1 h) is 6.4%. Also, in series [2] (2 h), the degraded at 2 h worked out at 14.8%. Moreover, in series [2] (4 h), the degraded at 4 h was found to be 26.6%. Also, in series [2] (8 h), the degraded at 8 h worked out at 41.3%. For the same compound, the degraded at 12 h in series [2] (12 h) turned out to be 53.7%.

For `C[C@@]12CC[C@@H]3[C@H](OC(=O)[C@H]3CN3CCNCC3)[C@@H]3[C@]1(CC[C@@]3(C)O)C2` [Compound 26], in series [1] (1 h), the metabolised at 1 h is 7.8%. In series [1] (2 h), the metabolised at 2 h amounted to 17.1%. The metabolised at 4 h in series [1] (4 h) came out at 29.3%. In series [1] (8 h), the metabolised at 8 h is 48.5%. Besides, in series [1] (12 h), the metabolised at 12 h stood at 65.6%. The degraded at 1 h in series [2] (1 h) is 6.8%. Moreover, the degraded at 2 h in series [2] (2 h) came to 16.1%. For the same compound, the degraded at 4 h in series [2] (4 h) is 27.3%. Also, the degraded at 8 h in series [2] (8 h) amounted to 43.5%. Further, the degraded at 12 h in series [2] (12 h) is 55.6%.

In the case of `CCN1CCN(C[C@@H]2C(=O)O[C@H]3[C@H]2CC[C@@]2(C)C[C@]24CC[C@@](C)(O)[C@H]34)CC1` [Compound 27], the metabolised at 1 h in series [1] (1 h) was 7.9%. For the same compound, the metabolised at 2 h in series [1] (2 h) was determined as 17.4%. Also, in series [1] (4 h), the metabolised at 4 h is 28.4%. The metabolised at 8 h in series [1] (8 h) is 48.2%. Moreover, the metabolised at 12 h in series [1] (12 h) amounted to 59.1%. Moreover, the degraded at 1 h in series [2] (1 h) was 6.9%. Besides, in series [2] (2 h), the degraded at 2 h was found to be 15.4%. In addition, in series [2] (4 h), the degraded at 4 h is 27.4%. Further, in series [2] (8 h), the degraded at 8 h came to 42.2%. In addition, in series [2] (12 h), the degraded at 12 h came out at 54.8%.

With `CCN(CC)C[C@@H]1C(=O)O[C@H]2[C@H]1CC[C@@]1(C)C[C@]13CC[C@@](C)(O)[C@H]23` [Compound 28], the metabolised at 1 h in series [1] (1 h) turned out to be 6.8%. In addition, the metabolised at 2 h in series [1] (2 h) came out at 14.5%. In series [1] (4 h), the metabolised at 4 h is 24.4%. Moreover, the metabolised at 8 h in series [1] (8 h) was found to be 40.4%. The metabolised at 12 h in series [1] (12 h) was found to be 49.1%. Further, the degraded at 1 h in series [2] (1 h) was determined as 6.8%. In series [2] (2 h), the degraded at 2 h was determined as 14.5%. In addition, the degraded at 4 h in series [2] (4 h) amounted to 24.4%. In addition, the degraded at 8 h in series [2] (8 h) came to 40.4%. Also, the degraded at 12 h in series [2] (12 h) is 50%.

Consider `CN(C)C[C@@H]1C(=O)O[C@H]2[C@H]1CC[C@@]1(C)C[C@]13CC[C@@](C)(O)[C@H]23` [Compound 39], for which the metabolised at 1 h in series [1] (1 h) turned out to be 6.6%. For the same compound, in series [1] (2 h), the metabolised at 2 h came out at 14%. Also, in series [1] (4 h), the metabolised at 4 h was 26.2%. In series [1] (8 h), the metabolised at 8 h was found to be 43.6%. Further, in series [1] (12 h), the metabolised at 12 h was found to be 52.8%. Also, the “Release rate (conversion to Compound 1)” value in series [2] (1 h, 60 min) stood at 6.6%. Besides, in series [2] (2 h), the degraded at 2 h is 15%. Also, the degraded at 4 h in series [2] (4 h) amounted to 26.8%. For the same compound, the degraded at 8 h in series [2] (8 h) turned out to be 42.7%. In addition, the degraded at 12 h in series [2] (12 h) is 54.3%.

In the case of `CN(C)C[C@@H]1C(=O)O[C@H]2[C@H]1CC[C@@]1(C)C[C@]13CC[C@@](C)(O)[C@H]23` [Compound 40], the “Release rate (conversion to Compound 1)” value in series [1] (1 h, 60 min) was 6.7%; in series [1] (2 h, 120 min), 14.2%; in series [1] (4 h, 240 min), 26.8%; in series [1] (8 h, 480 min), 44.0%; in series [1] (12 h, 720 min), 52.6%; in series [2] (1 h, 60 min), 6.8%. For the same compound, the “Release rate (conversion to Compound 1)” value worked out at 14.6% in series [2] (2 h, 120 min); 26.2% in series [2] (4 h, 240 min); 44.0% in series [2] (8 h, 480 min); 50.2% in series [2] (12 h, 720 min).

`CN(C)C[C@@H]1C(=O)O[C@H]2[C@H]1CC[C@@]1(C)C[C@]13CC[C@@](C)(O)[C@H]23` [Compound 41]: the “Release rate (conversion to Compound 1)” value is reported as 7.8% in series [1] (1 h, 60 min); 17.2% in series [1] (2 h, 120 min); 28.0% in series [1] (4 h, 240 min); 46.1% in series [1] (8 h, 480 min); 54.8% in series [1] (12 h, 720 min); 7.0% in series [2] (1 h, 60 min). Also, the “Release rate (conversion to Compound 1)” value is 16.2% in series [2] (2 h, 120 min); 27.3% in series [2] (4 h, 240 min); 43.4% in series [2] (8 h, 480 min); 53.2% in series [2] (12 h, 720 min).

Take `CN(C)C[C@@H]1C(=O)O[C@H]2[C@H]1CC[C@@]1(C)C[C@]13CC[C@@](C)(O)[C@H]23` [Compound 42]: the “Release rate (conversion to Compound 1)” value in series [1] (1 h, 60 min) came out at 6.3%; in series [1] (2 h, 120 min), 14.2%; in series [1] (4 h, 240 min), 26.2%; in series [1] (8 h, 480 min), 41.0%; in series [1] (12 h, 720 min), 47.2%; in series [2] (1 h, 60 min), 7.0%. In addition, the “Release rate (conversion to Compound 1)” value in series [2] (2 h, 120 min) turned out to be 15.0%; in series [2] (4 h, 240 min) it was 25.2%; in series [2] (8 h, 480 min), 42.8%; in series [2] (12 h, 720 min), 52.3%.

With `CC1CCN(C[C@@H]2C(=O)O[C@H]3[C@H]2CC[C@@]2(C)C[C@]24CC[C@@](C)(O)[C@H]34)CC1` [Compound 43], the “T-cell proliferation rate (%)” value with T cells / MDSCs (1 μM, MDSCs treated 12 hours, co-culture of MDSCs and T cells, compared to the control group) is “+ (T-cell proliferation rate within the 0-20% range compared to the control group)”.

As to `CC(C)(C)OC(=O)N1CCN(C[C@@H]2C(=O)O[C@H]3[C@H]2CC[C@@]2(C)C[C@]24CC[C@@](C)(O)[C@H]34)CC1` [Compound 44], the activation at 1 µM in the series on T cells / MDSCs was 0 to 20%.

In the case of `CN(C)C[C@@H]1C(=O)O[C@H]2[C@H]1CC[C@@]1(C)C[C@]13C[C@@H](O)[C@@](C)(O)[C@H]23` [Compound 60], the activation at 1 µM with T cells / MDSCs was in the range of 0 to 20%.

As to `CC1=C2[C@H]3OC(=O)[C@@H](CN(C)C)[C@@H]3CC[C@@]3(C)C[C@@]23CC1` [Compound 62], the activation at 1 µM in the series on T cells / MDSCs fell in the range of 0 to 20%.

Turning to `CCC(=O)O[C@]1(C)CC[C@@]23C[C@]2(C)CC[C@@H]2[C@H](CC(=O)[C@H]2CN(C)C)[C@H]31` [Compound 63], the activation at 1 µM with T cells / MDSCs lay within 0 to 20%.

Regarding `C=C1C(=O)O[C@H]2[C@H]1CCC(C)=C1CC[C@@](C)(OC(=O)NC)[C@@H]12` [Compound 64], the activation at 1 µM with T cells / MDSCs was over 40%.

`C=C1C(=O)O[C@H]2[C@H]1CCC(C)=C1CC[C@@](C)(OC(=O)NCC)[C@@H]12` [Compound 65]: in the series with T cells / MDSCs, the activation at 1 µM was 0 to 20%.

Take `C=C1C(=O)O[C@H]2[C@H]1CCC(C)=C1CC[C@@](C)(OC(=O)NCCC)[C@@H]12` [Compound 66]: the activation at 1 µM in the series on T cells / MDSCs fell in the range of 0 to 20%.

For `C=C1C(=O)O[C@H]2[C@H]1CCC(C)=C1CC[C@@](C)(OC(=O)NCCCC)[C@@H]12` [Compound 67], the activation at 1 µM with T cells / MDSCs was 20 to 40%.

`C=C1C(=O)O[C@H]2[C@H]1CCC(C)=C1CC[C@@](C)(OC(=O)NC(C)C)[C@@H]12` [Compound 68]: the activation at 1 µM with T cells / MDSCs lay in the range of 0 to 20%.

For the compound `C=C1C(=O)O[C@H]2[C@H]1CCC(C)=C1CC[C@@](C)(OC(=O)NC(CC)CC)[C@@H]12` [Compound 69], the activation at 1 µM with T cells / MDSCs fell in the range of 20 to 40%.
